Test results: patent US20230391739A1, “ARYL DERIVATIVES FOR TREATING TRPM3 MEDIATED DISORDERS” (Katholieke Universiteit Leuven, priority 2020, published 2023)

target: T1, mouse TRPM3α2 (mTRPM3) ion channel (Mus musculus, UniProt J9SQF3); test: TRPM3 ion channel driven Ca2+ uptake, Fluo-4 AM assay, PS-stimulated (mTRPM3); format: cell-based; settings: TRPM3 overexpressing flip-in HEK293 cells stimulated with Pregnenolone sulfate (PS) 50 μM, activity ranges A, B, C
T1 construct: expressed in transfected cells; host or cells: flip-in HEK293
Method in brief: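 Flp-In HEK293 cells overexpressing mTRPM3α2 were added, in Ca²⁺-free Krebs, to wells already holding compound and 50 μM pregnenolone sulfate in Ca²⁺-containing Krebs. Fluo-4 AM fluorescence (ex 485/em 535 nm) was read immediately. Percent inhibition was computed from RFU relative to PS/vehicle wells and a positive-control inhibitor.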

T1 sequence (J9SQF3 1-1709 isoform J9SQF3-12): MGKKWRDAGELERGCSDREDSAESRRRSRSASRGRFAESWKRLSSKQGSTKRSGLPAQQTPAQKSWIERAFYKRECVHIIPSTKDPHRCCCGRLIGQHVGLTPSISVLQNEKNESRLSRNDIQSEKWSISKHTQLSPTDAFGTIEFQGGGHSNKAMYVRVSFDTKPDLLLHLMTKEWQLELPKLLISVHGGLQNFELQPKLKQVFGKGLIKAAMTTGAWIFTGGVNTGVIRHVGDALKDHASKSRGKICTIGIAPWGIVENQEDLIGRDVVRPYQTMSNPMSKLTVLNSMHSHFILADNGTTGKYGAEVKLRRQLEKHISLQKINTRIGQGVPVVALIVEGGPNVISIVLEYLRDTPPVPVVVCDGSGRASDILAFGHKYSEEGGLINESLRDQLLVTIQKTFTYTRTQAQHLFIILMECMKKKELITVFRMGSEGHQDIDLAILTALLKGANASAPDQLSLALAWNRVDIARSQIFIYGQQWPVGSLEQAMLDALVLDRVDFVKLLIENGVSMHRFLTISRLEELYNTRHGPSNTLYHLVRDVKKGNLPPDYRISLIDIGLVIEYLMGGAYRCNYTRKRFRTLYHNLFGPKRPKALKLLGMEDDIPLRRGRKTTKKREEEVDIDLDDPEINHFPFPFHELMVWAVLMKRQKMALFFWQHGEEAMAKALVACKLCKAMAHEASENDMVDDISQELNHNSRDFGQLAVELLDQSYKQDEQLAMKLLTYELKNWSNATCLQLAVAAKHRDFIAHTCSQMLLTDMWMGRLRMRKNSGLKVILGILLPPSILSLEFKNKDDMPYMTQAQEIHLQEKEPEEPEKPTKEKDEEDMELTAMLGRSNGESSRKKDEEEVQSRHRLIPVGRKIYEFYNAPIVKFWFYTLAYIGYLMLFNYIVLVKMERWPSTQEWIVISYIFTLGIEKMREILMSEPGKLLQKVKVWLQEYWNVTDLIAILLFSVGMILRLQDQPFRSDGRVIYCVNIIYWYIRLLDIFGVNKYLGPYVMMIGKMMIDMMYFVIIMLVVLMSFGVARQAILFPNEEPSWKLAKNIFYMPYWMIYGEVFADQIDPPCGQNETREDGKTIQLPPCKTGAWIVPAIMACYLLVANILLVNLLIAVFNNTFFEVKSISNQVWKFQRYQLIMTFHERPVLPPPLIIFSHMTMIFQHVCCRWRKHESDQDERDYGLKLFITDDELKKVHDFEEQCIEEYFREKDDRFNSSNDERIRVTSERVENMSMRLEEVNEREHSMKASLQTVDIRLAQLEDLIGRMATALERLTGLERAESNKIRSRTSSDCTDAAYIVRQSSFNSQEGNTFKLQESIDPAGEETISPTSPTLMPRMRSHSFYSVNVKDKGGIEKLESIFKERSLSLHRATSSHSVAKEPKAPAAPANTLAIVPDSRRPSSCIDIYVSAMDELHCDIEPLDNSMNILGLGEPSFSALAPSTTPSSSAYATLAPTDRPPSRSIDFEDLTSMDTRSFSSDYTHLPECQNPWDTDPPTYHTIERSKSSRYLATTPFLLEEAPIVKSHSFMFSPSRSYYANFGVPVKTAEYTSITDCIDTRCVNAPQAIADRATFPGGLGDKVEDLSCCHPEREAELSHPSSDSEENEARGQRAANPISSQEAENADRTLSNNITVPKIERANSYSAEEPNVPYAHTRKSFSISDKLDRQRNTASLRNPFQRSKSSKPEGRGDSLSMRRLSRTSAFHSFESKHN

SMILES	IC50 [nM]
Cc1oc2ccc(OCc3ccc(F)cc3F)cc2c1C(=O)N[C@@H](CO)C(N)=O [Cpd 340, (S)—N-(1-amino-3-hydroxy-1-oxopropan-2-yl)-5-((2,4-difluorobenzyl)oxy)-2-methylbenzofuran-3-carboxamide]	< 1000
CNC(=O)[C@@H]1C[C@@H](NC(=O)c2c(C)oc3ccc(OCc4ccccc4)cc23)CN1 [Cpd 188, (2S,4R)-4-(5-(benzyloxy)-2-methylbenzofuran-3-carboxamido)-N-methylpyrrolidine-2-carboxamide]	1000 to 20000
Cc1oc2ccc(OCc3ccccc3)cc2c1C(=O)NCC1CCNC1 (centres unmarked) [Cpd 077, 5-(benzyloxy)-2-methyl-N-(pyrrolidin-3-ylmethyl)benzofuran-3-carboxamide]	1000 to 20000
Cc1oc2ccc(OCc3ccccc3F)cc2c1C(=O)NC1(C(N)=O)CCOC1 (single isomer, unassigned) [Cpd 323-En 2, N-(3-carbamoyltetrahydrofuran-3-yl)-5-((2-fluorobenzyl)oxy)-2-methylbenzofuran-3-carboxamide]	< 1000
Cc1oc2ccc(OCc3ccccc3)cc2c1C(=O)N[C@H]1CCCN(C2COC2)C1 [Cpd 206, (S)-5-(benzyloxy)-2-methyl-N-(1-(oxetan-3-yl)piperidin-3-yl)benzofuran-3-carboxamide]	1000 to 20000
Cc1noc(C)c1CCNC(=O)c1c(C)oc2ccc(OCc3ccccc3)cc12 [Cpd 178, 5-(benzyloxy)-N-(2-(3,5-dimethylisoxazol-4-yl)ethyl)-2-methylbenzofuran-3-carboxamide]	1000 to 20000
Cc1oc2ccc(OCc3ccccc3)cc2c1C(=O)N1CCC(C(=O)OC(C)(C)C)CC1 [Cpd 237, tert-butyl 1-(5-(benzyloxy)-2-methylbenzofuran-3-carbonyl)piperidine-4-carboxylate]	> 20000
Cc1oc2ccc(OCc3ccccc3)cc2c1C(=O)NCCc1ccccn1 [Cpd 138, 5-(benzyloxy)-2-methyl-N-(2-(pyridin-2-yl)ethyl)benzofuran-3-carboxamide]	1000 to 20000
Cc1oc2ccc(OCc3ccccc3)cc2c1C(=O)N[C@@H]1C[C@H]2CC[C@@H](C1)N2C [Cpd 182, 5-(benzyloxy)-2-methyl-N-((1R,3s,5S)-8-methyl-8-azabicyclo[3.2.1]octan-3-yl)benzofuran-3-carboxamide]	< 1000
Cc1oc2ccc(OCc3ccc(F)cc3)cc2c1C(=O)NS(=O)(=O)C1CC1 [Cpd 177, N-(cyclopropylsulfonyl)-5-((4-fluorobenzyl)oxy)-2-methylbenzofuran-3-carboxamide]	1000 to 20000
Cc1oc2ccc(OCc3ccccc3)cc2c1C(=O)NC1CN(C2COC2)C1 [Cpd 148, 5-(benzyloxy)-2-methyl-N-(1-(oxetan-3-yl)azetidin-3-yl)benzofuran-3-carboxamide]	< 1000
Cc1oc2ccc(OCc3ccccc3)cc2c1C(=O)NC1CCNCC1 [Cpd 074, 5-(benzyloxy)-2-methyl-N-(piperidin-4-yl)benzofuran-3-carboxamide]	< 1000
Cc1oc2ccc(OCc3ccccc3)cc2c1C(=O)O [Cpd 002, 5-(benzyloxy)-2-methylbenzofuran-3-carboxylic acid]	< 1000
Cc1oc2ccc(OCc3ccccc3)cc2c1C(=O)N1CC[C@@H](N(C)C)C1 [Cpd 118, (R)-(5-(benzyloxy)-2-methylbenzofuran-3-yl)(3-(dimethylamino)pyrrolidin-1-yl)methanone]	> 20000
Cc1oc2ccc(OCc3ccccc3)cc2c1C(=O)N[C@@H](CO)C(N)=O [Cpd 337, (S)—N-(1-amino-3-hydroxy-1-oxopropan-2-yl)-5-(benzyloxy)-2-methylbenzofuran-3-carboxamide]	< 1000
Cc1oc2ccc(OCc3ccccc3)cc2c1C(=O)N[C@@H]1CCCNC1=O [Cpd 107, (R)-5-(benzyloxy)-2-methyl-N-(2-oxopiperidin-3-yl)benzofuran-3-carboxamide]	< 1000
Cc1oc2ccc(OCc3ccccc3)cc2c1C(=O)Nc1cccnn1 [Cpd 062, 5-(benzyloxy)-2-methyl-N-(pyridazin-3-yl)benzofuran-3-carboxamide]	> 20000
Cc1oc2ccc(OC(C)c3ccccc3)cc2c1C(=O)N[C@@H](CO)C(N)=O (single isomer, unassigned) [Cpd 336-Dia 2]	< 1000
Cc1oc2ccc(OCc3ccccc3C(F)(F)F)cc2c1C(=O)O [Cpd 024, 2-methyl-5-((2-(trifluoromethyl)benzyl)oxy)benzofuran-3-carboxylic acid]	< 1000
Cc1oc2ccc(OCc3ccccc3)cc2c1C(=O)NCc1cnccn1 [Cpd 102, 5-(benzyloxy)-2-methyl-N-(pyrazin-2-ylmethyl)benzofuran-3-carboxamide]	1000 to 20000
Cc1oc2ccc(OC(CO)c3ccccc3F)cc2c1C(=O)NC1(C(N)=O)CCC1 (single isomer, unassigned) [Cpd 345-En 1, N-(1-carbamoylcyclobutyl)-5-(1-(2-fluorophenyl)-2-hydroxyethoxy)-2-methylbenzofuran-3-carboxamide]	< 1000

SMILES	IC50 [nM]
Cc1oc2ccc(OCc3ccccc3)cc2c1C(=O)N1CCCC(C(=O)NCC(C)C)C1 (centres unmarked) [Cpd 236, 1-(5-(benzyloxy)-2-methylbenzofuran-3-carbonyl)-N-isobutylpiperidine-3-carboxamide]	> 20000
Cc1oc2ccc(OCc3ccccc3)cc2c1C(=O)NCC1CCOCC1 [Cpd 122, 5-(benzyloxy)-2-methyl-N-((tetrahydro-2H-pyran-4-yl)methyl)benzofuran-3-carboxamide]	1000 to 20000
Cc1oc2ccc(OCc3ccccc3)cc2c1C(=O)N1CCCC(N(C)C)C1 (centres unmarked) [Cpd 150, (5-(benzyloxy)-2-methylbenzofuran-3-yl)(3-(dimethylamino)piperidin-1-yl)methanone]	> 20000
Cc1oc2ccc(OCc3ccccc3)c(C#N)c2c1C(=O)NC1CNCC1(F)F (single isomer, unassigned) [Cpd 297-En 2, 5-(benzyloxy)-4-cyano-N-(4,4-difluoropyrrolidin-3-yl)-2-methylbenzofuran-3-carboxamide]	1000 to 20000
Cc1oc2ccc(OCc3ccccc3)cc2c1C(=O)NC1CNCC1F (racemic) [Cpd 093, rac-5-(benzyloxy)-N-(trans-4-fluoropyrrolidin-3-yl)-2-methylbenzofuran-3-carboxamide]	< 1000
Cc1oc2ccc(OCc3ccccc3)cc2c1C(=O)NCC1CCNCC1 [Cpd 121, 5-(benzyloxy)-2-methyl-N-(piperidin-4-ylmethyl)benzofuran-3-carboxamide]	1000 to 20000
Cc1oc2ccc(OCc3c(F)cccc3F)cc2c1C(=O)NC1CCNCC1(F)F (centres unmarked) [Cpd 226, 5-((2,6-difluorobenzyl)oxy)-N-(3,3-difluoropiperidin-4-yl)-2-methylbenzofuran-3-carboxamide]	< 1000
Cc1oc2cc(C#N)c(OCc3ccccc3)cc2c1C(=O)NC1CNCC1(F)F (single isomer, unassigned) [Cpd 301-En 1, 5-(benzyloxy)-6-cyano-N-(4,4-difluoropyrrolidin-3-yl)-2-methylbenzofuran-3-carboxamide]	> 20000
CCc1oc2ccc(OCc3cccc(F)c3)cc2c1C(=O)O [Cpd 015, 2-ethyl-5-((3-fluorobenzyl)oxy)benzofuran-3-carboxylic acid]	1000 to 20000
Cc1oc2ccc(OCc3ccccc3F)cc2c1C(=O)NC1(CO)CCNC1=O (single isomer, unassigned) [Cpd 334-En 1]	< 1000
Cc1oc2ccc(OCc3ccccc3)c(C)c2c1C(=O)NC1CNCC1(F)F (single isomer, unassigned) [Cpd 299-En 2, 5-(benzyloxy)-N-(4,4-difluoropyrrolidin-3-yl)-2,4-dimethylbenzofuran-3-carboxamide]	< 1000
Cc1oc2ccc(OCc3ccccc3)cc2c1C(=O)N[C@H]1CC[C@H](N)CC1 [Cpd 120, N-(trans-4-aminocyclohexyl)-5-(benzyloxy)-2-methylbenzofuran-3-carboxamide]	1000 to 20000
Cc1oc2ccc(OCc3ccccc3)cc2c1C(=O)N[C@@H]1CCN(C(=O)OC(C)(C)C)C1 [Cpd 238, tert-butyl (R)-3-(5-(benzyloxy)-2-methylbenzofuran-3-carboxamido)pyrrolidine-1-carboxylate]	> 20000
Cc1oc2ccc(OCc3ccccc3F)cc2c1C(=O)NC1(C(N)=O)COC1 [Cpd 309, N-(3-carbamoyloxetan-3-yl)-5-((2-fluorobenzyl)oxy)-2-methylbenzofuran-3-carboxamide]	< 1000
Cc1oc2ccc(OCc3ccccc3F)cc2c1C(=O)N[C@@H]1COC[C@H]1O (relative stereo) [Cpd 330-En 2]	< 1000
Cc1oc2ccc(OC(CCN(C)C)c3ccccc3)cc2c1C(=O)NC1CCNC1=O (centres unmarked) [Cpd 224, 5-(3-(dimethylamino)-1-phenylpropoxy)-2-methyl-N-(2-oxopyrrolidin-3-yl)benzofuran-3-carboxamide]	> 20000
Cc1oc2ccc(OC(C)c3ccccc3)cc2c1C(=O)NC1(C(N)=O)CCC1 (single isomer, unassigned) [Cpd 343-En 2, N-(1-carbamoylcyclobutyl)-2-methyl-5-(1-phenylethoxy)benzofuran-3-carboxamide]	< 1000
Cc1oc2ccc(OCc3ccccc3CO)cc2c1C(=O)NC1CCN(C)CC1 [Cpd 192, 5-((2-(hydroxymethyl)benzyl)oxy)-2-methyl-N-(1-methylpiperidin-4-yl)benzofuran-3-carboxamide]	1000 to 20000
Cc1oc2ccc(OCc3ccccc3)cc2c1C(=O)NC1CCNCC1(F)F (centres unmarked) [Cpd 173, 5-(benzyloxy)-N-(3,3-difluoropiperidin-4-yl)-2-methylbenzofuran-3-carboxamide]	< 1000
Cc1ccc(COc2ccc3oc(C)c(C(=O)N[C@H]4CCNC4)c3c2)cc1 [Cpd 085, (S)-2-methyl-5-((4-methylbenzyl)oxy)-N-(pyrrolidin-3-yl)benzofuran-3-carboxamide]	< 1000
